{"source": "patent US11819532B2", "about": "“Peptide macrocycles against Acinetobacter baumannii” (Hoffmann-La Roche Inc., priority 2018, dated 2023)", "key": {"[1]": {"settings": "positive control and comparator in all assay runs; cited from earlier work"}, "A. baumannii ATCC 17978": {"tested_on": "A. baumannii ATCC 17978", "test": "50% growth inhibitory concentration (IC50) determination, antimicrobial susceptibility testing", "type": "cell-based", "settings": "Acinetobacter baumannii", "description": "The in vitro antimicrobial activity of the compounds was alternatively determined according to the following procedure:\nThe assay used a 10-points Iso-Sensitest broth medium to measure quantitatively the in vitro activity of the compounds against A. baumannii ATCC 17978.\nStock compounds in DMSO were serially twofold diluted (e.g. range from 50 to 0.097 μM or from 10 to 0.020 μM final concentration) in 384 wells microtiter plates and inoculated with 49 μl the bacterial suspension in Iso-Sensitest medium to have a final cell concentration of ˜5×10^(5)CFU/ml in a final volume/well of 50 μl/well. Microtiter plates were incubated at 35±2° C.\nBacterial cell growth was determined with the measurement of optical density at X=600 nm each 20 minutes over a time course of 16h.\nGrowth inhibition was calculated during the logarithmic growth of the bacterial cells with determination of the concentration inhibiting 50% (IC50) and 90% (IC90) of the growth.\nTable 1 provides the 50% growth inhibitory concentrations (IC50) in micromoles per liter of the compounds of present invention obtained against the A. baumannii strain ATCC17978."}, "primary hepatocytes [2]": {"tested_on": "primary hepatocytes", "test": "Hepatocyte uptake assay scaled to in vivo clearance (rat)", "type": "in vitro ADME", "settings": "scaled from rat hepatocyte uptake, well-stirred liver model", "description": "(§1) The compounds of the present invention are cleared through hepatic uptake, which can be determined experimentally in vitro using methods described in the art (e.g., K. Menochet, K. E. Kenworthy, J. B. Houston, A. Galetin, Journal of Pharmacology and Experimental Therapeutics 2012, 34, 2). In cases where the scaled in vitro hepatocyte uptake clearance data correspond to the clearance observed in animals, a meaningful prediction of the human clearance can be made on the basis of in vitro human hepatocyte uptake data.\n(§2) The hepatocyte uptake assay was performed manually in 24-well plates in analogy to a protocol described in the literature (K. Menochet, K. E. Kenworthy, J. B. Houston, A. Galetin, Journal of Pharmacology and Experimental Therapeutics 2012, 34, 2). […] Next, the cell monolayer was lysed using acetonitrile/water 3:1, and the intracellular concentration was measured using LC-MS/MS.\n(§3) Total (CLuptake) and passive (CLpassive) uptake clearance values were measured from initial uptake rates in the absence and presence of inhibitors. Uptake rates were calculated over 10 minutes at 37° C. from the slope of the linear regression of the cell concentrations versus time plot. Total and passive uptake clearance values were calculated by dividing the slope by the initial substrate concentration and were normalized for protein content. […]"}, "primary hepatocytes [3]": {"tested_on": "primary hepatocytes", "test": "Hepatocyte uptake assay scaled to in vivo clearance (human)", "type": "in vitro ADME", "settings": "scaled from human hepatocyte uptake, well-stirred liver model", "description": "as §1, §2, §3"}, "primary hepatocytes [4]": {"tested_on": "primary hepatocytes", "test": "Hepatocyte uptake assay scaled to in vivo clearance (cynomolgus monkey)", "type": "in vitro ADME", "settings": "scaled from monkey hepatocyte uptake, well-stirred liver model", "description": "as §1, §2, §3"}, "[5]": {"test": "Single dose pharmacokinetic study in male cynomolgus monkeys", "settings": "cynomolgus monkey, plasma, intravenous bolus dose of 1 mg/kg, read-out: cynomolgus monkey clearance, observed in vivo", "description": "Three male monkeys were administered with compound formulation (2 mg/mL in 0.9% saline) as an intravenous bolus dose of 1 mg/kg.\n(§4) Blood was sampled at 0.08, 0.25, 0.5, 1, 2, 4, 7 and 24 hours after administration and the blood collecting tubes were centrifuged for 5 min at 5200 g at room temperature to isolate the plasma supernatant.\nConcentrations of compound in plasma were analyzed using a LC-MS method with a calibration range of 0.5-2500 ng/mL and are summarised in Example 23."}, "[6]": {"test": "Single dose pharmacokinetic study in male rats", "settings": "rat, plasma, intravenous bolus dose of 6 mg/kg, read-out: rat clearance, observed in vivo", "description": "Three male rats were administered with compound formulation (3 mg/mL in 0.9% saline) as an intravenous bolus dose of 6 mg/kg.\nas §4\nConcentrations of compound in plasma were analyzed using a LC-MS method with a calibration range of 1-2500 ng/mL. The clearance values are calculated using methods described in the art and are summarised in Example 23."}, "[7]": {"test": "Plasma precipitation screening assay", "parameters": "species or system rat", "description": "An aliquot (10 μL) of compound solubilized in physiological buffer or the formulation used for its parenteral administration in vivo, and of various dilutions thereof in phosphate-buffered saline (PBS), is mixed 1:1 with rat plasma. After 10 minutes incubation at room temperature the UV-absorption of the mixtures is measured and compared to absorption of blank plasma or plasma with vehicle solution. A significant (often concentration dependent) increase of absorption is indicative of precipitation.\nWhole blood is obtained from WISTAR rats (Hanbrl:Wist SPF) under terminal anaesthesia after intraperitoneal injection of a pentobarbital solution (from animals euthanized for collection of tissue for other experimental purposes). Blood is collected in 1.2 mL of Heparin S-Monovette tubes (Sarstedt) for the preparation of heparin plasma.\nThe tubes are then centrifuged for 5 min at 5200 g at room temperature to isolate the plasma supernatant. The plasma is used in the assay within 48 h of collection (storage at 4° C.).\nTest compounds are received as powder or formulated. When obtained as powder, they are solubilized in 0.9% aq. sodium chloride solution in order to get the highest indicated concentration to be tested. The solubility is visually checked and the solutions are filtered using 0.45 PVDF hydrophilic filters (Durapore®, Darmstadt, Germany), to remove possible solid impurities. pH of this initial solution might be measured in the filtered stock solutions, before proceeding to prepare a compound dilution series in PBS (1:1-dilution steps).\nThe assay is conducted in 384-well plates. 10 μL of rat plasma is added to 10 μL of the various compound solutions. The assay is performed in duplicate. 10 μL of vehicle (0.9% aq. sodium chloride solution, PBS) added to the plasma is used as a negative control. The absorption is measured at 362 nm.\nRaw data obtained are absorbance data. The difference between absorbance of the sample and mean absorbance of vehicle is calculated. The minimal effect concentration (MEC) is defined as the lowest concentration giving an absorbance difference, OD362≥0.05."}, "[8]": {"settings": "50% growth inhibition, A. baumannii strain ATCC17978, Iso-Sensitest medium, read-out: IC50 ATCC17978"}, "[9]": {"settings": "minimal effect concentration, lowest concentration giving absorbance difference OD362≥0.05, rat plasma 1:1, 10 minutes room temperature"}, "[10]": {"settings": "Wistar (Hanbrl:Wist SPF), rat, 10 min"}, "[11]": {"settings": "ATCC17978, read-out: IC50 ATCC17978"}}, "note": "Where two headings read alike, the source gives them in different places."}
{"smiles": "CN1C(=O)[C@H](CCCCN)NC(=O)[C@H](CCCN)NCc2cccnc2Sc2c(Cl)ccc(Cl)c2CNC(=O)[C@@H]1Cc1c[nH]c2ccccc12", "note": "[CAS-RN 2097284-11-0, (11S,14S,17S)-14-(4-Aminobutyl)-11-(3-aminopropyl)-22,25-dichloro-17-(1H-indol-3-ylmethyl)-16-methyl-2-thia-4,10,13,16,19-pentazatricyclo[19.4.0.03,8]pentacosa-1(25),3(8),4,6,21,23-hexaene-12,15,18-trione]", "values": [{"measurement": "precipitation in plasma", "setting": "[1]", "result": "known to induce precipitation in plasma"}]}
{"smiles": "CN1C(=O)[C@H](CCCCN)NC(=O)[C@H](CCCN)NCc2cccnc2Sc2cccc(-c3ccc(C(=O)O)cc3)c2CNC(=O)[C@@H]1Cc1c[nH]c2ccccc12", "note": "[Example 1.00, 4-[(11S,14S,17S)-14-(4-Aminobutyl)-1-(3-aminopropyl)-17-(1H-indol-3-ylmethyl)-16-methyl-12,15,18-trioxo-2-thia-4,10,13,16,19-pentazatricyclo[19.4.0.03,8]pentacosa-1(25), 3(8),4,6,21,23-hexaen-22-yl]benzoic Acid]", "values": [{"measurement": "IC50", "setting": "A. baumannii ATCC 17978; [8]", "result": 98, "unit": "nM"}, {"measurement": "rat clearance, in vitro scaled", "setting": "primary hepatocytes [2]", "result": 14.5, "unit": "mL/min/kg"}, {"measurement": "human clearance, in vitro scaled (predicted)", "setting": "primary hepatocytes [3]", "result": 0.46, "unit": "mL/min/kg"}, {"measurement": "cynomolgus monkey clearance, in vitro scaled", "setting": "primary hepatocytes [4]", "result": 3.8, "unit": "mL/min/kg"}, {"measurement": "clearance", "setting": "[5]", "result": 4.8, "unit": "mL/min/kg"}, {"measurement": "clearance", "setting": "[6]", "result": 14.3, "unit": "mL/min/kg"}, {"measurement": "Plasma precipitation MEC", "setting": "[7]; [9]", "result": 1110, "unit": "µmol/L"}]}
{"smiles": "CN1C(=O)[C@H](CCCCN)NC(=O)[C@H](CCCN)NCc2cccnc2Sc2cncc(-c3ccc(C(=O)O)cc3)c2CNC(=O)[C@@H]1Cc1c[nH]c2ccccc12", "note": "[Example 18.00, 4-[(11S,14S,17S)-14-(4-Aminobutyl)-1-(3-aminopropyl)-17-(1H-indol-3-ylmethyl)-16-methyl-12,15,18-trioxo-2-thia-4,10,13,16,19,24-hexazatricyclo[19.4.0.03,8]pentacosa-1(25), 3(8), 4,6,21,23-hexaen-22-yl]benzoic Acid]", "values": [{"measurement": "IC50", "setting": "A. baumannii ATCC 17978; [8]", "result": 75, "unit": "nM"}, {"measurement": "Plasma precipitation MEC", "setting": "[7]; [10]", "result": ">1760", "unit": "µmol/L"}]}
{"smiles": "CN1C(=O)[C@H](CCCCN)NC(=O)[C@H](CCCN)NCc2cccnc2Sc2c(Cl)ccc(Cl)c2CNC(=O)[C@@H]1Cc1c[nH]c2ccccc12", "note": "[Example 38 of WO2017/072062, reference compound]", "values": [{"measurement": "IC50", "setting": "A. baumannii ATCC 17978; [11]", "result": 42, "unit": "nM"}, {"measurement": "Plasma precipitation MEC", "setting": "[7]; [9]", "result": 52, "unit": "µmol/L"}]}
{"smiles": "CN1C(=O)[C@H](CCCCN)NC(=O)[C@H](CCCN)NCc2cccnc2Sc2c(Cl)ccc(-c3ccc(C(=O)O)cc3)c2CNC(=O)[C@@H]1Cc1c[nH]c2ccccc12", "note": "[Example 239 of WO2017/072062, reference compound]", "values": [{"measurement": "IC50", "setting": "A. baumannii ATCC 17978; [11]", "result": 20, "unit": "nM"}, {"measurement": "Plasma precipitation MEC", "setting": "[7]; [9]", "result": 470, "unit": "µmol/L"}]}
{"smiles": "CN1C(=O)[C@H](CCCCN)NC(=O)[C@H](CCCN)NCc2cccnc2Sc2c(Cl)ccc(-c3ccc(OCC(=O)O)cc3)c2CNC(=O)[C@@H]1Cc1c[nH]c2ccccc12", "note": "[Example 241 of WO2017/072062, reference compound]", "values": [{"measurement": "IC50", "setting": "A. baumannii ATCC 17978; [8]", "result": 50, "unit": "nM"}, {"measurement": "Plasma precipitation MEC", "setting": "[7]; [10]", "result": 95, "unit": "µmol/L"}]}
{"smiles": "CN1C(=O)[C@H](CCCCN)NC(=O)[C@H](CCCN)NCc2cccnc2Sc2c(Cl)ccc(-c3ccc(C(=O)O)cc3)c2CNC(=O)[C@@H]1Cc1c[nH]c2ccccc12", "note": "[drawing 99, reference compound]", "values": [{"measurement": "rat clearance, in vitro scaled", "setting": "primary hepatocytes [2]", "result": 28.7, "unit": "mL/min/kg"}, {"measurement": "human clearance, in vitro scaled (predicted)", "setting": "primary hepatocytes [3]", "result": 3.91, "unit": "mL/min/kg"}, {"measurement": "cynomolgus monkey clearance, in vitro scaled", "setting": "primary hepatocytes [4]", "result": 28.3, "unit": "mL/min/kg"}, {"measurement": "clearance", "setting": "[5]", "result": 14.5, "unit": "mL/min/kg"}, {"measurement": "clearance", "setting": "[6]", "result": 23.5, "unit": "mL/min/kg"}]}
